The solubility is the concentration that dissolves in the medium under given conditions. A higher solubility goes with a readily soluble substance. The term chromatographic logD denotes lipophilicity estimated from chromatographic retention. The Papp is the rate of passage across a membrane or cell layer, normalised by area and donor concentration. The low end stands for slow passage, the high end for fast passage.

Converted amounts (≈) assume the structure as drawn. Like-named read-outs stand apart in the source and are kept apart here.

Data set [1] deals with NOD1. Set-up: method as in PMID 22062585. Particulars: read-out: NOD1 IC50 (nucleotide binding); cited from earlier work.
The subject of another data set is NOD2. Also noted: method as in PMID 22549783. As to conditions: read-out: NOD2 IC50 (nucleotide binding); cited from earlier work.
The target in data set [2] is T1, NOD1 (Homo sapiens, UniProt Q9Y239).
T1 sequence (Q9Y239 1-953): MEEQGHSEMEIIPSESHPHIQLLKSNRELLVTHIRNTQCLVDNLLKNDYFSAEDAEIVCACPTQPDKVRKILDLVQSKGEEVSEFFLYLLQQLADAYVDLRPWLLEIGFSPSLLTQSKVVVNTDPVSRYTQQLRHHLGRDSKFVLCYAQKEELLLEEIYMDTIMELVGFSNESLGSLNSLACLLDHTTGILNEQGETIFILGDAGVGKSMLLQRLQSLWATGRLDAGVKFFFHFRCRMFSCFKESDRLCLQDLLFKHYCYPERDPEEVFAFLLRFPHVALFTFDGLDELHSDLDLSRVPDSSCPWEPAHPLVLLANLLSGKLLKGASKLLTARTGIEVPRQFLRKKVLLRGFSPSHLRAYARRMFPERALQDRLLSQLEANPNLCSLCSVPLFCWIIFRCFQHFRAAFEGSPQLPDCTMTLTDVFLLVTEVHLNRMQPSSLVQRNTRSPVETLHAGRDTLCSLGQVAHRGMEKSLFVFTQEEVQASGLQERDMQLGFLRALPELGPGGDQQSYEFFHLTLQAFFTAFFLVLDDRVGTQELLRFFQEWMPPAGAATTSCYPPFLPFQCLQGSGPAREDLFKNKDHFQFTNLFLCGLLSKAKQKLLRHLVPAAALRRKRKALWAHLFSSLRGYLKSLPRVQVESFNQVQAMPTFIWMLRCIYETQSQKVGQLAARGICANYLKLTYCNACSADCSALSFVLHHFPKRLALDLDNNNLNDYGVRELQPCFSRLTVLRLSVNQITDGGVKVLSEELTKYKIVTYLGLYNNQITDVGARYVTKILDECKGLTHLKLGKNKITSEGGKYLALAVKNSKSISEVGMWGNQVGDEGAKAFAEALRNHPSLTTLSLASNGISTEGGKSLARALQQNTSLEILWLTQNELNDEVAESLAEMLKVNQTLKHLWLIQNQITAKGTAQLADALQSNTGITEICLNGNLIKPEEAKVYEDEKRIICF
Nature of the data set: iE-DAP-stimulated IL-8 release in 293/hNOD1 cells. The class given is cell-based. On the procedure: Inhibitors of iE-DAP-stimulated IL-8 release were screened in a 1536-well assay in which 293/hNOD1 cells (5000 cells/well) in DMEM high glucose medium supplemented with 0.1% FBS and 10 µg/mL Blasticidin S were stimulated with 60 ng/mL (200 nM) iE-DAP (EC80) in the presence of 10 µM compounds. After 24 hours the amount of IL-8 secreted into the medium was determined by homogeneous time resolved fluorescence (HTRF) assay by the direct addition of a 1∶1 mix of europium cryptate and XL665-conjugated anti-IL-8 antibodies according to the manufacturer’s instructions (Cisbio). Fluorescence was measured after 2 hours in a ViewLux imager using UMB-AMC excitation and 618–671 nm emission filters (Perkin Elmer). […] Inhibition of TNFR1-induced IL-8 release was performed with 293/hNOD1 cells stimulated with 20 ng/mL (∼EC95) rhTNFα.
A high-throughput screen of about 2.2 million compounds was conducted for inhibitors of the NOD1 signaling pathway using suppression of iE-DAP stimulated IL-8 secretion in HEK293 cells stably expressing human NOD1 (293/hNOD1 cells). […] These assays were chosen to assess the selectivity of hits because the signaling pathways activated by these receptors converge at the level of the TAB/TAK1/IKK complex.

Another data set is described as follows: CLND solubility. Particulars: phosphate buffered saline with 5% DMSO, pH 7.4, aqueous buffer, kinetic from dmso stock; 5% DMSO pH7.4 phosphate buffered saline. The class given is physicochemical. The source says: (§1) Physicochemical analyses of compounds were completed at GSK.
A short description of data set [3]: Chromatographic hydrophobicity index (Chrom log D). Type of data set: physicochemical. Particulars: pH 7.4.
Excerpt: as §1

Data set [4] in a line: Permeability across an artificial membrane. Type of data set: in vitro ADME. As to conditions: PAMPA.
Excerpt: as §1

Another data set deals with human serum albumin (Homo sapiens, UniProt P02768). Nature of the data set: Human serum albumin (HSA) binding. Type of data set: in vitro ADME.
Excerpt: as §1

The test system of the next data set is α1-acid glycoprotein. Nature of the data set: α1-acid glycoprotein (AGP) binding. The class given is in vitro ADME.
Excerpt: as §1

Data set [5] is described as follows: Immobilized artificial membrane (IAM) binding. The class given is physicochemical.
Excerpt: as §1

Data set [6] relates to NOD1 induced NF-κB and MAPK pathways. Nature of the data set: Western blotting of IκBα and phospho-MAPKs in Tri-DAP stimulated 293/hNOD1 cells. Particulars: 50 µg/mL Tri-DAP 1 hour, immunoblotting. Type of data set: cell-based, human. As to the method:
Confluent cultures of 293/hNOD1 and -hNOD2 cells seeded in 24-well plates were serum-starved over-night, pre-incubated for 1 hour with compound and then stimulated for 1 hour with either 50 µg/mL Tri-DAP or 25 µg/mL MDP, respectively. Whole cell lysates were prepared in 1X cell lysis buffer (Cell Signaling Technology) supplemented with additional protease, aminopeptidase and phosphatase inhibitors (protease inhibitor cocktail set III, EMD Biosciences; phosphatase inhibitor sets II and III, Sigma-Aldrich). The levels of phosphorylated and total p38, JNK, ERK1/2 and total IκBα were determined by immunoblotting of ∼20 µg protein per sample using the following primary antibodies: phospho-p38 MAPK (12F8, #4631), p38 MAPK (#9212), phospho-JNK (#9251), JNK (#9252) and IκBα (#9242) all purchased from Cell Signaling Technology, and phospho-ERK1/2 (sc-7383) and ERK1/2 (sc-94) antibodies from Santa Cruz Biotechnology.

The subject of data set [7] is NOD1. Particulars: HEK293T cells, read-out: IC50 NF-κB reporter, cited from earlier work.
Where [8] appears, read: iE-DAP-stimulated IL-8 production in 293/hNOD1 cells, SAR figures, read-out: NOD1 XC50.
[9] abbreviates: HEK293 stably expressing human NOD1, IL-8 released into medium, read-out: IC50 293/hNOD1 iE-DAP.

human serum albumin, sequence (P02768 25-609): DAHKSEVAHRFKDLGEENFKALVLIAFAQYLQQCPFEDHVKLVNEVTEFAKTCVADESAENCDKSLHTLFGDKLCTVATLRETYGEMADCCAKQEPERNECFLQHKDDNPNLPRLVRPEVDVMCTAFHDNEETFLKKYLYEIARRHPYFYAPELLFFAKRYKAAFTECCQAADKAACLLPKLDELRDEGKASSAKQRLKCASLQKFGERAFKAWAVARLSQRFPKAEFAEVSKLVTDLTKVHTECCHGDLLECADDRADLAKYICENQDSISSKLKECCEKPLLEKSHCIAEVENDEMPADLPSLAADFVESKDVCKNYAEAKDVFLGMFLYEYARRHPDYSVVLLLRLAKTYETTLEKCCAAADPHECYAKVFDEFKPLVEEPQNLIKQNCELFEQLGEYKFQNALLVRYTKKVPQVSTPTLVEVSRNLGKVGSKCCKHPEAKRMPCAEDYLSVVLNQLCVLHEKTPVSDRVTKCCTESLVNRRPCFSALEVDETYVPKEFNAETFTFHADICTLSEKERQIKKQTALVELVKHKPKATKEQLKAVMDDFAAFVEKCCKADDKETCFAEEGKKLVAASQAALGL

Turning to `Nc1ncnc2c1ncn2[C@@H]1O[C@H](COP(=O)(O)OP(=O)(O)OP(=O)(O)O)[C@@H](O)[C@H]1O` [ATP], the IC50 is about 0.015 µM in the data set with NOD1 [1] and about 0.06 µM in the data set with NOD2.
With `Cn1c(=O)[nH]c(=O)c2c1nc(SCCc1ccccc1)n2Cc1ccccc1` [Compound 1], on NOD1 [2] (setting [8]), the IC50 is 0.4 ± 0.08 µM.
Same read-out and setting: the result for `Cn1c(=O)[nH]c(=O)c2c1nc(CCCSc1ccccc1)n2Cc1ccccc1` [Compound 2] reads 2.5 ± 1.3 µM; that for `CCCCCCSc1nc2c(c(=O)[nH]c(=O)n2C)n1Cc1ccccc1` [Compound 3], 4.7 ± 1.4 µM; that for `Cn1c(=O)[nH]c(=O)c2c1nc(SCCCc1ccccc1)n2Cc1ccccc1` [Compound 4], 8.7 ± 1.5 µM.
Same read-out and setting: for `Cc1cccc(CSc2nc3c(c(=O)[nH]c(=O)n3C)n2Cc2ccccc2)c1` [Compound 5] the value was 8.9 ± 1.6 µM; for `C/C=C/Cn1c(SCCc2ccccc2)nc2c1c(=O)[nH]c(=O)n2C` [Compound 6], 9.6 ± 2.8 µM; for `Cn1c(=O)[nH]c(=O)c2c1nc(SCc1ccccc1)n2Cc1ccccc1` [Compound 7], 37.3 ± 18.1 µM.
For the molecule `Cc1nc2ccccc2c(=O)n1-c1ccc(F)c(NS(=O)(=O)c2ccccc2F)c1` [Compound 8], the IC50 on NOD1 [2] (setting [9]) came to 0.7 µM. Further, in the data set “CLND solubility”, the solubility stood at 391 µM (≈ 167 µg/mL). Also, the chromatographic logD in data set [3] was found to be 3.24. The same molecule had a Papp in data set [4] of 35 ×10⁻⁶ cm/s. This molecule showed an HSA binding on human serum albumin of 96.05%. The same molecule registered an AGP binding in the data set with α1-acid glycoprotein of 80.38%. For the same molecule, the IAM binding in [5] is reported as 1.42 log K.
As to `Cc1nc2ccccc2c(=O)n1-c1ccc(F)c(NS(=O)(=O)c2ccc(Cl)s2)c1` [Compound 9], the IC50 on NOD1 [2] (setting [9]) amounted to 0.7 µM. For the same molecule, in [6], the “effect on Tri-DAP induced p-JNK, p-p38 and IκBα responses” value was “reduced both phospho-JNK and the weaker phospho-p38 levels while levels of IκBα were increased”.
With `Cc1nc2ccccc2c(=O)n1-c1ccc(F)c(NS(=O)(=O)c2ccc(F)cc2F)c1` [Compound 10], the IC50 at NOD1 [2] (setting [8]) was determined as 2.2 ± 3.3 µM.
Still for that read-out and setting: the result for `Cc1ccc(S(=O)(=O)Nc2cc(-n3c(C)nc4ccccc4c3=O)ccc2F)cc1C` [Compound 11] reads 1.1 ± 0.7 µM.
Same read-out and setting: the result for `Cc1nc2ccccc2c(=O)n1-c1ccc(F)c(NS(=O)(=O)c2cc(Cl)ccc2Cl)c1` [Compound 12] reads 1.2 ± 0.1 µM.
Turning to `Cc1nc2ccccc2c(=O)n1-c1ccc(F)c(NS(=O)(=O)c2cccs2)c1` [Compound 13], at NOD1 [2] (setting [8]), the IC50 turned out to be 2.3 ± 1.7 µM. In “CLND solubility”, this molecule returned a solubility of 423 µM (≈ 176 µg/mL). The molecule also displayed a chromatographic logD in data set [3] of 2.87. The molecule also came in with a Papp in data set [4] of 26 ×10⁻⁶ cm/s. Also, the HSA binding on human serum albumin is on record as 96.08%. Further, the AGP binding in the data set on α1-acid glycoprotein turned out to be 81.23%. Also, the IAM binding in data set [5] came to 1.36 log K.
Take `CCc1ccc(S(=O)(=O)Nc2cccc(-n3c(C)nc4ccccc4c3=O)c2)s1` [Compound 14]: on NOD1 [2] (setting [9]), the IC50 was determined as 15.1 µM.
As for `Cc1ccc(S(=O)(=O)Nc2cccc(C(=O)Nc3nc4ccc([N+](=O)[O-])cc4s3)c2)cc1` [Compound 15], the IC50 on NOD1 [2] (setting [9]) came out at 0.2 µM; on NOD1 [2] (setting [8]), 0.19 ± 0.03 µM.
For `Cc1ccc(S(=O)(=O)Nc2cccc(C(=O)Nc3ccc4nc(C)sc4c3)c2)c(F)c1` [Compound 17], the IC50 at NOD1 [2] (setting [8]) was determined as 0.76 ± 0.1 µM.
For the molecule `CC(=O)Nc1ccc2nc(NC(=O)c3cccc(NS(=O)(=O)c4ccc(C)cc4)c3)sc2c1` [Compound 18], at NOD1 [2] (setting [8]), the IC50 is 1.4 ± 0.3 µM.
The same measure, in the same setting: for `N#Cc1ccc(-c2csc(NC(=O)c3cccc(NS(=O)(=O)c4ccc(Cl)cc4)c3)n2)cc1` [Compound 19] the value was 2 ± 0.5 µM.
On the same count and under the same terms, the result for `COc1ccc(S(=O)(=O)Nc2cccc(C(=O)Nc3ccc4nc(C)sc4c3)c2)cc1` [Compound 20] reads 2.3 ± 0.8 µM.
Turning to `O=C(Nc1ccc2c(c1)OCO2)c1cccc(NS(=O)(=O)c2ccc(Cl)cc2)c1` [Compound 21], at NOD1 [2] (setting [8]), the IC50 was found to be 3.7 ± 1.4 µM. In the data set “CLND solubility”, this molecule returned a solubility of 46 µM (≈ 19.8 µg/mL). In addition, in data set [3], the chromatographic logD stood at 5.17. In [4], this molecule yielded an apparent permeability coefficient (Papp) of 23 ×10⁻⁶ cm/s. The HSA binding on human serum albumin came out at 98.01%. For the same molecule, the AGP binding with α1-acid glycoprotein was 87.41%. In [5], this molecule returned an IAM binding of 2.40 log K.
For the molecule `Cc1nc2ccccc2c(=O)n1-c1ccc(Cl)c(NS(=O)(=O)c2ccc3c(c2)OCCO3)c1` [Compound 23], the IC50 on NOD1 [2] (setting [8]) came out at 0.1 ± 0.04 µM.
As for `Cc1ccc(S(=O)(=O)Nc2cc(-n3c(C)nc4ccccc4c3=O)ccc2Cl)cc1` [Compound 24], the IC50 at NOD1 [2] (setting [8]) was found to be 0.2 ± 0.2 µM.
For `COc1ccc(Cl)cc1S(=O)(=O)Nc1cc(-n2c(C)nc3ccccc3c2=O)ccc1Cl` [Compound 25], the IC50 at NOD1 [2] (setting [8]) was determined as 0.5 ± 0.1 µM.
Still for that read-out and setting: for `Cc1nc2ccc(Cl)cc2c(=O)n1-c1ccc(Cl)c(NS(=O)(=O)c2ccccc2F)c1` [Compound 26, N-(2-chloro-5-(6-chloro-2-methyl-4-oxoquinazolin-3(4H)-yl)phenyl)-2-fluorobenzenesulfonamide] the value was 0.026 µM.
Regarding `Cc1nc2cc(Cl)ccc2c(=O)n1-c1ccc(Cl)c(NS(=O)(=O)c2ccccc2F)c1` [Compound 27, N-(2-chloro-5-(7-chloro-2-methyl-4-oxoquinazolin-3(4H)-yl)phenyl)-2-fluorobenzenesulfonamide], the IC50 at NOD1 [2] (setting [8]) was 2.5 ± 1.2 µM.
Still for that read-out and setting: for `Cc1nc(C)n(-c2ccc(Cl)c(NS(=O)(=O)c3ccccc3F)c2)c(=O)c1C` [Compound 28, N-(2-chloro-5-(2,4,5-trimethyl-6-oxopyrimidin-1(6H)-yl)phenyl)-2-fluorobenzenesulfonamide] the value was 3.5 ± 0.5 µM; for `Cc1cc(=O)n(-c2ccc(Cl)c(NS(=O)(=O)c3ccccc3F)c2)c(C)n1` [Compound 29, N-(2-chloro-5-(2,4-dimethyl-6-oxopyrimidin-1(6H)-yl)phenyl)-2-fluorobenzenesulfonamide], 25 ± 17.5 µM.
On to `Cc1ccc(S(=O)(=O)n2c(N)nc3ccccc32)cc1` [ML130], for which the IC50 with NOD1 [7] is 0.56 µM.
Regarding `C/C=C/Cn1c(SCCCc2ccccc2)nc2c1c(=O)[nH]c(=O)n2C` [ML146], the IC50 in the data set on NOD1 [7] (ref Magnuson et al, 2010) is 1.5 µM.

(Values after paper PMC4013053, “Identification of Selective Small Molecule Inhibitors of the Nucleotide-Binding Oligomerization Domain 1 (NOD1) Signaling Pathway” (PLoS ONE, 2014).)
